Data: patent US20150377889A1, “GALECTIN-3 AS A MARKER FOR PROSTATE CANCER” (Wayne State University, priority 2013, published 2015)

Experiments:
[1] = system: co-cultured BAMEC and LNCaP cells; test: Three-dimensional growth and tube formation assay, BAMEC/LNCaP co-culture on […]; type: cell-based, bovine, human; conditions: for tube formation: loops / tube formation: units of tubes: 10 μg/ml protein added to medium, 36 hr; for tube formation: loops: control 0; for tube formation: units of tubes: control 73; for branching morphogenesis of endothelial cells: 10 μg/ml protein, BAMEC/LNCaP co-culture
Method: Three-dimensional Growth and Tube Formation Assay. To analyze in vitro angiogenesis and interactions between epithelial and endothelial cell formation of tubular networks by co-cultured BAMEC and LNCaP cells, a three-dimensional growth and tube formation assay was performed. Briefly, […]® (10 μl) was added to each chamber of the slide (μ-Slide, ibidi, Martinsried, Germany) and gelled by a 30-min incubation at room temperature, after which 15,000 BAMEC and 5000 LNCaP cells were plated onto the gel in 50 μl of Eagle's minimal essential complete medium. In some chambers, full-length galectin-3 or its fragments were added. After 36 hr, three-dimensional structures were observed under phase contrast microscope and photographed. Images were acquired with an Olympus IX71 microscope supporting a Hamamatsu ORCA-ER video camera. Tube formation image analysis was done using the web-based Image Analysis Win-Tube module of Wimasis online software.
Three-dimensional heterotypic co-cultures of epithelial (LNCaP) and endothelial (BAMEC) cells were performed on […]® to study tube formation in the presence of 10 μg/ml galectin-3 and its fragments. […] FIG. 2B presents a quantitative evaluation of the tube formation assay.

[2] = system: LNCaP cells; test: Chemotaxis assay (Boyden chamber); type: cell-based, human; conditions: 10 μg/ml, 5 hr, compared with control or either of the two fragments
Method: Chemotaxis. This assay was performed using a Boyden chamber (Neuroprobe). In the lower chamber, the chemo-attractant […]® (BD Biosciences) alone or mixed with various concentrations of recombinant galectin-3, galectin-3 1-107, or galectin-3 108-250 was added. LNCaP (5×10^4) cells suspended in basic DMEM were loaded in the upper chamber. The two chambers were separated by a polycarbonate filter of 5-micron pore size and incubated in a 37° C. tissue culture incubator for 5 hr, after which the filter was removed, the cells on top of the filter were wiped off, and the migrated cells were fixed, stained using Protocol Hema 3 stain set (Fisher Scientific), and counted under microscope. Each assay was carried out in triplicate.
The effects of galectin-3 1-107 and 108-250 fragments, as well as full-length galectin-3 on migration of LNCaP cells in a chemotaxis assay were also tested.

[3] = system: LNCaP, Du145, and PC3M cell lines; test: Wound-healing (scratch) assay; type: cell-based, human; conditions: 24 hr, compared with the control
Method: Wound-healing Assay. A wound-healing assay, the scratch assay, was performed according to the protocol published in Liang, et al. (2007), Nat. Protoc. 2, 329-333. Briefly, in this scratch assay 60-mm dishes were coated with ECM and incubated overnight, unbound ECM was removed and the dishes were blocked with bovine serum albumin. Subconfluent growing cells were resuspended in a tissue culture dish by washing cells with PBS, adding versene containing trypsin, and mixing cells with medium containing serum. Cells were then plated onto the prepared 60-mm dish to create a confluent monolayer, and incubated for 6 hr at 37° C.
The cell lines LNCaP (null galectin-3), DU145 (stable clone with reduced galectin-3 expression), and PC3M were used to examine the effect of full-length galectin-3, galectin-3 1-107, and galectin-3 108-250 on prostate cancer cell motility using the scratch assay. The assay was performed with LNCaP, Du145, and PC3M cultured cell lines stimulated by full-length galectin-3, and fragments galectin-3 1-107 and 108-250. A uniform wound was made in each plate using a 1-μl pipette tip. The wound area was observed immediately, then at 24 hr after creation the cells were counted. Cells were grown under identical conditions.

| Substance | tube formation: loops [1] | tube formation: units of tubes [1] [units] | branching morphogenesis of endothelial cells [1] | migration of LNCaP cells toward MATRIGEL [2] | prostate cancer cell motility [3] |
| --- | --- | --- | --- | --- | --- |
| full-length galectin-3: recombinant full-length human galectin-3 protein (SEQ ID NO:1), overexpressed in Escherichia coli | 12 | 127 | induced branching morphogenesis | significantly higher | promotes prostate cancer cell motility |
| galectin-3 108-250: recombinant fragment 108-250 of human galectin-3 (SEQ ID NO:3), contains carbohydrate recognition domain | 0 | 76 | failed to do so | – | did not show a significant increase in motility |
